In US10285989B2, “Pyrimidinone amide compounds as PDE2 inhibitors” (Merck Sharp & Dohme Corp., priority 2015, dated 2019):
Like-named read-outs stand apart in the source and are kept apart here.

What was measured:
Rhesus PDE2A3 = Rhesus PDE2A3 (Macaca mulatta, UniProt B3VTJ2); test: PDE2 fluorescence polarization (IMAP FP) inhibition assay, rhesus PDE2A3; type: biochemical, rhesus macaque
human PDE2A1 = human PDE2A1 (Homo sapiens (Human), UniProt O00408); test: PDE2 IMAP FP inhibition assay, human PDE2A1 (selectivity panel format); type: biochemical
Chain of human PDE2A1 (O00408 other isoform, or with tags, fused parts or gaps): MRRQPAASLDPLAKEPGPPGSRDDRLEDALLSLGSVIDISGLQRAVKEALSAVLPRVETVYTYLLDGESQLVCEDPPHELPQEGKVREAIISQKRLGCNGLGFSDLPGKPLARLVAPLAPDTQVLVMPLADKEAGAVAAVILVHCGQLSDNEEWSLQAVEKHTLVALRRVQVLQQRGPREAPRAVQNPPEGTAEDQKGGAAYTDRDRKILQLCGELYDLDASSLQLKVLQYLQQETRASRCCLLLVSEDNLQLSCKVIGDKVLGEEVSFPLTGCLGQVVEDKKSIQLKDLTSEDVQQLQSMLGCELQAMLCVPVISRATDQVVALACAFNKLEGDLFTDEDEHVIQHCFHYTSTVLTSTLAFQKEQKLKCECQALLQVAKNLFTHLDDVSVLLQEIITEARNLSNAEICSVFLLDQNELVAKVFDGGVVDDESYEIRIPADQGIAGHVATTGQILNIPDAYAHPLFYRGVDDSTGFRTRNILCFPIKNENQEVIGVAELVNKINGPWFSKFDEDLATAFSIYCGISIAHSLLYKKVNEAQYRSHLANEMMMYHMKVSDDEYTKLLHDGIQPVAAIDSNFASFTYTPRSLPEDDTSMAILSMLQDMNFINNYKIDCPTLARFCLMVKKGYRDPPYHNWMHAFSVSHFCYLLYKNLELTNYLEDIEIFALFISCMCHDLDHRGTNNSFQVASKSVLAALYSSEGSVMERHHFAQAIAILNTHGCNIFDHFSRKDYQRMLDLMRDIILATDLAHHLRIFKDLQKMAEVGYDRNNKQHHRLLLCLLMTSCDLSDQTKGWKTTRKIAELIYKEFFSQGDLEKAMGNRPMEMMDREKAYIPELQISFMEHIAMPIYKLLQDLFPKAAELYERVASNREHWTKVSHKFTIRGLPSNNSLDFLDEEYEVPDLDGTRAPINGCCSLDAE
Outline: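 IMAP fluorescence polarization assay; substrate 50 nM FAM-cAMP with 1000 nM cGMP, enzyme at ~20% conversion, in 10 mM Tris pH 7.2, 10 mM MgCl2, 1 mM DTT, 0.01% Tween-20. 60 min room temperature, stopped with IMAP binding reagent, 1 h, then parallel/perpendicular fluorescence read.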

P-glycoprotein (P-gp) = P-glycoprotein (P-gp) (Homo sapiens (Human), UniProt P08183); test: P-gp transport, experimental BA/AB ratio, human; type: in vitro ADME; details: LLC-PK1, 1 μM substrate concentration
Chain of P-glycoprotein (P-gp) (P08183 whole entry): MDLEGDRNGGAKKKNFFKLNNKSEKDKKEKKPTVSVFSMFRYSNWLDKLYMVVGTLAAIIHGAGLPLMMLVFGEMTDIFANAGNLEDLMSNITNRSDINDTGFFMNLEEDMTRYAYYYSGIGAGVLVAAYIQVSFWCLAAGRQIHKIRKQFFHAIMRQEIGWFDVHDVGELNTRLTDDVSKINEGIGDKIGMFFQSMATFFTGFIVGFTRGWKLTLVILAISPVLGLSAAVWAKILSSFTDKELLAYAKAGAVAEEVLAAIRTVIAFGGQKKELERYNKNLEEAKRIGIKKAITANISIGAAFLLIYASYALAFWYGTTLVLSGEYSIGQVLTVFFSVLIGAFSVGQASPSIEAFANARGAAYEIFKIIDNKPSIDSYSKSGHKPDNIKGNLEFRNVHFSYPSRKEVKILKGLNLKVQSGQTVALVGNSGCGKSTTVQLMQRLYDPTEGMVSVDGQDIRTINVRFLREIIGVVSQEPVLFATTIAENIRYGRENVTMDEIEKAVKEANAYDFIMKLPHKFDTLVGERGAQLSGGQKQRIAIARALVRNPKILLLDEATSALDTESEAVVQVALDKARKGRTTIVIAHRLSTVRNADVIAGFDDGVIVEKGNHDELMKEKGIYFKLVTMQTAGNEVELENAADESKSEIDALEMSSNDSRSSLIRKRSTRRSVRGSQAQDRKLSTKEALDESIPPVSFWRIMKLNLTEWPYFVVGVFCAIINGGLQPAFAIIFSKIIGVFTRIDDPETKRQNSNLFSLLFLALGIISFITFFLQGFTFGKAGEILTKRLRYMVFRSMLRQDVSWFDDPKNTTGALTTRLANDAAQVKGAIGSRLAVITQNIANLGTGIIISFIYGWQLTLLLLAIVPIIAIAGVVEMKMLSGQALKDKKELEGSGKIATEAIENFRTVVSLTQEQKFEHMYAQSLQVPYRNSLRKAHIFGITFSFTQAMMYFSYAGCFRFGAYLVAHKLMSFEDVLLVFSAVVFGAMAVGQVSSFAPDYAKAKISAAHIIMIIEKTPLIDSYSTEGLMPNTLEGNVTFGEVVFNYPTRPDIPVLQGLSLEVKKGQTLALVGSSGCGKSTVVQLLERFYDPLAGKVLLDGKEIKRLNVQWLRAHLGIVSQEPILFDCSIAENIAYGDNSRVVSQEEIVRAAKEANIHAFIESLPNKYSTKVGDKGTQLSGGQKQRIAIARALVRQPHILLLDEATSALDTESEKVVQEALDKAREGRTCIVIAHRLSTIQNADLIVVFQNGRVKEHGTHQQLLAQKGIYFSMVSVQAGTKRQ
Excerpt: (§1) See Doan et al. “Passive permeability and P-glycoprotein-mediated efflux differentiate central nervous system (CNS) and non-CNS marketed drugs”, J. Pharm. Exper. […] Desirable human BA/AB ratio is less than 2.0. […] See, for example, Desai, et al. Integration of in Silico and in Vitro Tools for Scaffold Optimization during Drug Discovery: Predicting P-glycoprotein Efflux” Mol. Pharmac.

[1] = biological target: P-glycoprotein (P-gp, rat Mdr1a) (Rattus norvegicus, UniProt Q6PSM0); test: P-gp transport, experimental BA/AB ratio, rat LLC-Mdr1a; type: in vitro ADME; details: LLC-PK1; rat LLC-Mdrla; 1 μM substrate concentration
Chain of P-glycoprotein (P-gp, rat Mdr1a) (Q6PSM0 1-1272): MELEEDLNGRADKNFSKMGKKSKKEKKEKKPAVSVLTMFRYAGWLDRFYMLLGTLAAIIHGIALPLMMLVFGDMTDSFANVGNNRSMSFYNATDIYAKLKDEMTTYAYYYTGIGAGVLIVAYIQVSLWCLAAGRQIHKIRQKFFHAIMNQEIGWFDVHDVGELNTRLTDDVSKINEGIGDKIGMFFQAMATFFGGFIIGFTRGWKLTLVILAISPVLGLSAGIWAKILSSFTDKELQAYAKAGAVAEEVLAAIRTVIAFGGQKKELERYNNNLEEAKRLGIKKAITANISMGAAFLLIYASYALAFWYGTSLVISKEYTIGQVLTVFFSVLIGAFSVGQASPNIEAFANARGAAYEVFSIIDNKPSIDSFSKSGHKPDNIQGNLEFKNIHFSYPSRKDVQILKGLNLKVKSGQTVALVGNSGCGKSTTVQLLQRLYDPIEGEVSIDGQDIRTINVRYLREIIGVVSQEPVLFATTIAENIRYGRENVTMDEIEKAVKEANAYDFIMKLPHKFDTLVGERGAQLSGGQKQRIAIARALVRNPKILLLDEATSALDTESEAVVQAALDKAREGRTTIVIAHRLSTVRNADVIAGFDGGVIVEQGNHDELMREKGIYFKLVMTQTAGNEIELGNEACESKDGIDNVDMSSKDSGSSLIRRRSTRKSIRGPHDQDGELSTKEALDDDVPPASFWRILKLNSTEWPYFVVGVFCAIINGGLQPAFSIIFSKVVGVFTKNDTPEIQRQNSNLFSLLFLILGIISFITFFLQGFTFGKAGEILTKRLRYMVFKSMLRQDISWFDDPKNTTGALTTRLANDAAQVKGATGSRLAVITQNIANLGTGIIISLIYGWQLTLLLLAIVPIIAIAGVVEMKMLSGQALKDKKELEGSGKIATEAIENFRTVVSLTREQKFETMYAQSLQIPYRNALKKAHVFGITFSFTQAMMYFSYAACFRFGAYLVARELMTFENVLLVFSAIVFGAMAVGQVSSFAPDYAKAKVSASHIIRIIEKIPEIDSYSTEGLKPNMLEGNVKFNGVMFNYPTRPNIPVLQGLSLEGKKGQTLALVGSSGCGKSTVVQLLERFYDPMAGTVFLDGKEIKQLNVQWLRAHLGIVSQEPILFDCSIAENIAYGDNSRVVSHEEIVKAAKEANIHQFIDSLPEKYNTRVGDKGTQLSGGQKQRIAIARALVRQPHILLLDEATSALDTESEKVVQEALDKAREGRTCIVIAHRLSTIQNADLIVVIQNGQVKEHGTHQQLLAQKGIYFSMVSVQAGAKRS
Excerpt: as §1

[2] = Lab A, read-out: Rhesus PDE2 Ki (nM) - Lab A
[3] = Lab B, read-out: Rhesus PDE2 Ki (nM) - Lab B
[4] = Lab A, read-out: Human PDE2 Ki (nM) - Lab A
[5] = Lab B, read-out: Human PDE2 Ki (nM) - Lab B

Chain of Rhesus PDE2A3 (B3VTJ2 1-941): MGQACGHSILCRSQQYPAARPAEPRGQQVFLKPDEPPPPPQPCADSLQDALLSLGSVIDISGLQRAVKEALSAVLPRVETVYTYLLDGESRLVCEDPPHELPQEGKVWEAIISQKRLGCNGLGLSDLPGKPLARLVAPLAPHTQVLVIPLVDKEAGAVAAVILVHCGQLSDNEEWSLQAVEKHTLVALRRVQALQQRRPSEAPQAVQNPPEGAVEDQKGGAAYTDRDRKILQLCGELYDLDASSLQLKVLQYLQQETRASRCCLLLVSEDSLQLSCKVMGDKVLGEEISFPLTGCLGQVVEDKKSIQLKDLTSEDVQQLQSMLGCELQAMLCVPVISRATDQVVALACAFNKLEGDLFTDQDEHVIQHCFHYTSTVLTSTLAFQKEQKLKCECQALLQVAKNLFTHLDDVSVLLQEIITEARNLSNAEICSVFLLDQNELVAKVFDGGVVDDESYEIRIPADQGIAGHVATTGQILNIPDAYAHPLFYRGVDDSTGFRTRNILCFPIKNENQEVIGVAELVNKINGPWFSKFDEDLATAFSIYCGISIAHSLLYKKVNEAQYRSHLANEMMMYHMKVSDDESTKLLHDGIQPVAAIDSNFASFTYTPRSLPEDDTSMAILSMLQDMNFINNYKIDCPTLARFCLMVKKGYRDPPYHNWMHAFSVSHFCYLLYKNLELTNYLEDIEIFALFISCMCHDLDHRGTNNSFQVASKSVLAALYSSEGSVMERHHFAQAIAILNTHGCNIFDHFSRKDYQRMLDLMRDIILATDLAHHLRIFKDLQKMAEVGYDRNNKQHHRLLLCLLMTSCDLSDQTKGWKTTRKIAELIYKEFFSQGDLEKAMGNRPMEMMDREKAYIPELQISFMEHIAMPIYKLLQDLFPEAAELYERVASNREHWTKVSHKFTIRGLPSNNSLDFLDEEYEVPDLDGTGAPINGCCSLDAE

| Ki (Rhesus PDE2A3; [2]) [nM] | Ki (Rhesus PDE2A3; [3]) [nM] | Ki (human PDE2A1; [4]) [nM] | Ki (human PDE2A1; [5]) [nM] | efflux ratio at 1 μM (P-glycoprotein (P-gp)) | efflux ratio at 1 μM [1] | Compound |
| --- | --- | --- | --- | --- | --- | --- |
| 1.2 | 0.8 | 0.9 | 0.96 | 0.5 | 2.6 | CN(C)c1nc(C(=O)NC2(c3ccc(C(F)(F)F)c(F)c3)CC2)cc(=O)[nH]1 [Example 94, 2-(dimethylamino)-N-{1-[3-fluoro-4-(trifluoromethyl)phenyl]cyclopropyl}-6-oxo-1,6-dihydropyrimidine-4-carboxamide] |
| 0.39 |  | 0.18 |  | 1 | 4.5 | CC(C)[C@@H](NC(=O)c1cc(=O)[nH]c(N2CCCC2)n1)c1ccc(C(F)(F)F)cc1 [Example 95, N-{(1R)-2-methyl-1-[4-(trifluoromethyl)phenyl]propyl}-6-oxo-2-pyrrolidin-1-yl-1,6-dihydropyrimidine-4-carboxamide] |
| 0.36 |  | 0.2 |  | 0.5 | 2.5 | C[C@@H](NC(=O)c1cc(=O)[nH]c(N(C)C)n1)c1ccc(SC(F)(F)F)c(F)c1 [Example 96, 2-(dimethylamino)-N-[(1R)-1-{3-fluoro-4-[(trifluoromethyl)sulfanyl]phenyl}ethyl]-6-oxo-1,6-dihydropyrimidine-4-carboxamide] |
| 0.62 |  | 0.34 |  | 0.4 | 1.8 | CN(C)c1nc(C(=O)N[C@@H](c2ccc(SC(F)(F)F)c(F)c2)C2CC2)cc(=O)[nH]1 [Example 97, N-[(R)-cyclopropyl{3-fluoro-4-[(trifluoromethyl)sulfanyl]phenyl}methyl]-2-(dimethylamino)-6-oxo-1,6-dihydropyrimidine-4-carboxamide] |
| 0.54 |  | 0.23 |  | 0.4 | 3 | CC[C@@H](NC(=O)c1cc(=O)[nH]c(N(C)C)n1)c1ccc(SC(F)(F)F)c(F)c1 [Example 98, 2-(dimethylamino)-N-[(1R)-1-{3-fluoro-4-[(trifluoromethyl)sulfanyl]phenyl}propyl]-6-oxo-1,6-dihydropyrimidine-4-carboxamide] |
|  | 1.1 |  | 1.1 | 0.7 | 5.8 | O=C(N[C@@H](c1ccc(S(F)(F)(F)(F)F)cc1)C1CC1)c1cc(=O)[nH]c(N2CCCC2)n1 [Example 99, N-{(R)-cyclopropyl[4-(pentafluoro-λ^6-sulfanyl)phenyl]methyl}-6-oxo-2-pyrrolidin-1-yl-1,6-dihydropyrimidine-4-carboxamide] |
|  | 0.17 |  | 0.21 | 0.7 | 2.9 | CN(C)c1nc(C(=O)N[C@@H](c2ccc(OC(F)(F)F)cc2)C(C)(C)C)cc(=O)[nH]1 [Example 100, 2-(dimethylamino)-N-{(1R)-2,2-dimethyl-1-[4-(trifluoromethoxy)phenyl]propyl}-6-oxo-1,6-dihydropyrimidine-4-carboxamide] |
|  | 0.14 |  | 0.12 | 1.7 | 10.1 | CN(C)c1nc(C(=O)N[C@@H](c2ccc(OC(F)(F)F)c(F)c2)C(C)(C)C)cc(=O)[nH]1 [Example 101, 2-(dimethylamino)-N-{(1R)-1-[3-fluoro-4-(trifluoromethoxy)phenyl]-2,2-dimethylpropyl}-6-oxo-1,6-dihydropyrimidine-4-carboxamide] |
|  | 0.18 |  | 0.2 | 1.4 | 5.7 | CN(C)c1nc(C(=O)N[C@@H](c2ccc(C(F)(F)F)c(F)c2)C(C)(C)C)cc(=O)[nH]1 [Example 102, 2-(dimethylamino)-N-{(1R)-1-[3-fluoro-4-(trifluoromethyl)phenyl]-2,2-dimethylpropyl}-6-oxo-1,6-dihydropyrimidine-4-carboxamide] |
|  | 0.12 |  | 0.12 | 2.2 | 8.2 | CN(C)c1nc(C(=O)N[C@@H](c2ccc(SC(F)(F)F)cc2)C(C)(C)C)cc(=O)[nH]1 [Example 103, 2-(dimethylamino)-N-[(1R)-2,2-dimethyl-1-{4-[(trifluoromethyl)sulfanyl]phenyl}propyl]-6-oxo-1,6-dihydropyrimidine-4-carboxamide] |
| 0.56 | 1.1 |  | 1.1 | 0.6 | 4.2 | CC[C@@H](NC(=O)c1cc(=O)[nH]c(N(C)C)n1)c1ccc(OC(F)(F)F)c(F)c1 [Example 104, 2-(dimethylamino)-N-{(1R)-1-[3-fluoro-4-(trifluoromethoxy)phenyl]propyl}-6-oxo-1,6-dihydropyrimidine-4-carboxamide] |
| 1 | 1.8 |  | 1.6 | 0.5 | 3.7 | CC[C@@H](NC(=O)c1cc(=O)[nH]c(N(C)C)n1)c1ccc(OC(F)(F)F)cc1 [Example 105, 2-(dimethylamino)-6-oxo-N-{(1R)-1-[4-(trifluoromethoxy)phenyl]propyl}-1,6-dihydropyrimidine-4-carboxamide] |
| 0.81 | 1.4 |  | 1.3 | 0.5 | 3.5 | CC[C@@H](NC(=O)c1cc(=O)[nH]c(N(C)C)n1)c1ccc(C(F)(F)F)c(F)c1 [Example 106, 2-(dimethylamino)-N-{(1R)-1-[3-fluoro-4-(trifluoromethyl)phenyl]propyl}-6-oxo-1,6-dihydropyrimidine-4-carboxamide] |
| 0.93 | 2.2 |  | 1.7 | 0.4 | 2.2 | CN(C)c1nc(C(=O)N[C@@H](c2ccc(OC(F)(F)F)cc2)C2CC2)cc(=O)[nH]1 [Example 107, N-{(1R)-cyclopropyl[4-(trifluoromethoxy)phenyl]methyl}-2-(dimethylamino)-6-oxo-1,6-dihydropyrimidine-4-carboxamide] |
| 0.66 | 1.3 |  | 1.8 | 0.4 | 1.9 | CN(C)c1nc(C(=O)N[C@@H](c2ccc(C(F)(F)F)cc2)C2CC2)cc(=O)[nH]1 [Example 108, N-{(1R)-cyclopropyl[4-(trifluoromethyl)phenyl]methyl}-2-(dimethylamino)-6-oxo-1,6-dihydropyrimidine-4-carboxamide] |
| 0.91 | 1.4 |  | 1.9 | 0.5 | 2.5 | CN(C)c1nc(C(=O)N[C@@H](c2ccc(C(F)(F)F)c(F)c2)C2CC2)cc(=O)[nH]1 [Example 109, N-{(1R)-cyclopropyl[3-fluoro-4-(trifluoromethyl)phenyl]methyl}-2-(dimethylamino)-6-oxo-1,6-dihydropyrimidine-4-carboxamide] |
| 0.48 | 0.96 |  | 1.3 | 0.5 | 3.5 | CN(C)c1nc(C(=O)N[C@@H](c2ccc(OC(F)(F)F)c(F)c2)C2CC2)cc(=O)[nH]1 [Example 110, N-{(1R)-cyclopropyl[3-fluoro-4-(trifluoromethoxy)phenyl]methyl}-2-(dimethylamino)-6-oxo-1,6-dihydropyrimidine-4-carboxamide] |
| 0.41 | 0.8 |  | 0.9 | 0.3 | 2 | CN(C)c1nc(C(=O)N[C@@H](c2ccc(SC(F)(F)F)cc2)C2CC2)cc(=O)[nH]1 [Example 111, N-[(R)-cyclopropyl{4-[(trifluoromethyl)sulfanyl]phenyl}methyl]-2-(dimethylamino)-6-oxo-1,6-dihydropyrimidine-4-carboxamide] |
| 0.27 | 0.44 |  | 0.55 | 0.7 | 4.7 | CC(C)[C@@H](NC(=O)c1cc(=O)[nH]c(N(C)C)n1)c1ccc(C(F)(F)F)c(F)c1 [Example 112, 2-(dimethylamino)-N-{(1R)-1-[3-fluoro-4-(trifluoromethyl)phenyl]-2-methylpropyl}-6-oxo-1,6-dihydropyrimidine-4-carboxamide] |
| 0.36 | 0.65 |  | 0.63 | 0.4 | 3.9 | O=C(N[C@@H](c1ccc(C2CC2)cc1)C1CC1)c1cc(=O)[nH]c(N2CCCC2)n1 [Example 113, N-[(R)-cyclopropyl(4-cyclopropylphenyl)methyl]-6-oxo-2-pyrrolidine-1-yl-1,6-dihydropyrimidine-4-carboxamide] |
| 0.94 | 1.5 |  | 1.5 | 0.5 | 4 | O=C(N[C@@H](c1ccc(OC(F)(F)F)cc1)C1CC1)c1cc(=O)[nH]c(N2CCCC2)n1 [Example 114, N-{(R)-cyclopropyl[4-(trifluoromethoxy)phenyl]methyl}-6-oxo-2-pyrrolidin-1-yl-1,6-dihydropyrimidine-4-carboxamide] |
| 32 |  | 24 |  | 0.3 | 1.5 | C[C@@H](NC(=O)c1cc(=O)[nH]c(N2CCCCC2)n1)c1ccc(C(F)(F)F)cc1 [Example 131, 6-oxo-2-piperidin-1-yl-N-{(1R)-1-[4-(trifluoromethyl)phenyl]ethyl}-1,6-dihydropyrimidine-4-carboxamide] |
